Source: ChEMBL document CHEMBL1201862, “PubChem BioAssay data set” (2004)
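How tested: cells in 96-well plates exposed to compound for 48 hours at five concentrations. The concentration for 50% growth inhibition is given as GI50.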 Active and inactive are the calls of the source. Cut-off read from the data, not from the text of the source: active = GI50 up to about 1.1 µM and inactive = higher.

Experiments:
Assay in all cases: NCI tumour cell line growth inhibition, 48 h
MDA-MB-231 = tested on: MDA-MB-231
SK-MEL-5 = tested on: SK-MEL-5
NCI-H226 = tested on: NCI-H226
OVCAR-4 = tested on: OVCAR-4
RXF 393 = tested on: RXF 393
UACC-62 = tested on: UACC-62
HCC 2998 = tested on: HCC 2998
SN12C = tested on: SN12C
NCI-H23 = tested on: NCI-H23
KM12 = tested on: KM12
HCT-15 = tested on: HCT-15
RPMI-8226 = tested on: RPMI-8226
PC-3 = tested on: PC-3
SW-620 = tested on: SW-620
A498 = tested on: A498
A549 = tested on: A549
SF-295 = tested on: SF-295
CCRF-CEM = tested on: CCRF-CEM
NCI-H522 = tested on: NCI-H522
T47D = tested on: T47D
SNB-19 = tested on: SNB-19
786-0 = tested on: 786-0
EKVX = tested on: EKVX
MDA-MB-435 = tested on: MDA-MB-435
MOLT-4 = tested on: MOLT-4
ACHN = tested on: ACHN
MCF7 = tested on: MCF7
OVCAR-5 = tested on: OVCAR-5
OVCAR-3 = tested on: OVCAR-3
HOP-62 = tested on: HOP-62
SK-MEL-28 = tested on: SK-MEL-28
NCI/ADR-RES = tested on: NCI/ADR-RES
LOX IMVI = tested on: LOX IMVI
NCI-H460 = tested on: NCI-H460
HOP-92 = tested on: HOP-92
U-251 = tested on: U-251
MDA-N = tested on: MDA-N
SK-MEL-2 = tested on: SK-MEL-2
IGROV-1 = tested on: IGROV-1
K562 = tested on: K562
SF-268 = tested on: SF-268
BT-549 = tested on: BT-549
COLO 205 = tested on: COLO 205
OVCAR-8 = tested on: OVCAR-8
HL-60 = tested on: HL-60
HT-29 = tested on: HT-29
SK-OV-3 = tested on: SK-OV-3
UACC-257 = tested on: UACC-257
Hs-578T = tested on: Hs-578T
CAKI-1 = tested on: CAKI-1
HCT-116 = tested on: HCT-116
Malme-3M = tested on: Malme-3M
SNB-75 = tested on: SNB-75
DU-145 = tested on: DU-145
TK-10 = tested on: TK-10
UO-31 = tested on: UO-31
M14 = tested on: M14
SR = tested on: SR
SF-539 = tested on: SF-539

COc1c2cc([N+](=O)[O-])cc1CNC(=O)CN1CCOCCOCCN(CCOCCOCC1)CC(=O)NC2
GI50 (MDA-MB-231): > 100 µM (inactive)
GI50 (SK-MEL-5): > 100 µM (inactive)
GI50 (NCI-H226): > 100 µM (inactive)
GI50 (OVCAR-4): > 100 µM (inactive)
GI50 (RXF 393): > 100 µM (inactive)
GI50 (UACC-62): > 100 µM (inactive)
GI50 (HCC 2998): > 100 µM (inactive)
GI50 (SN12C): > 100 µM (inactive)
GI50 (NCI-H23): > 100 µM (inactive)
GI50 (KM12): > 100 µM (inactive)
GI50 (HCT-15): > 100 µM
GI50 (RPMI-8226): 56.4 µM (inactive)
GI50 (PC-3): > 100 µM (inactive)
GI50 (SW-620): > 100 µM (inactive)
GI50 (A498): > 100 µM (inactive)
GI50 (A549): > 100 µM (inactive)
GI50 (SF-295): > 100 µM (inactive)
GI50 (CCRF-CEM): > 100 µM (inactive)
GI50 (NCI-H522): > 100 µM (inactive)
GI50 (T47D): > 100 µM (inactive)
GI50 (SNB-19): > 100 µM (inactive)
GI50 (786-0): > 100 µM (inactive)
GI50 (EKVX): > 100 µM (inactive)
GI50 (MDA-MB-435): > 100 µM (inactive)
GI50 (MOLT-4): > 100 µM (inactive)
GI50 (ACHN): > 100 µM (inactive)
GI50 (MCF7): > 100 µM (inactive)
GI50 (OVCAR-5): > 100 µM (inactive)
GI50 (OVCAR-3): > 100 µM (inactive)
GI50 (HOP-62): > 100 µM (inactive)
GI50 (SK-MEL-28): > 100 µM (inactive)
GI50 (NCI/ADR-RES): > 100 µM (inactive)
GI50 (LOX IMVI): > 100 µM (inactive)
GI50 (NCI-H460): > 100 µM (inactive)
GI50 (HOP-92): > 100 µM (inactive)
GI50 (U-251): > 100 µM (inactive)
GI50 (MDA-N): > 100 µM (inactive)
GI50 (SK-MEL-2): > 100 µM (inactive)
GI50 (IGROV-1): > 100 µM (inactive)
GI50 (K562): > 100 µM (inactive)
GI50 (SF-268): > 100 µM (inactive)
GI50 (BT-549): > 100 µM (inactive)
GI50 (COLO 205): > 100 µM (inactive)
GI50 (OVCAR-8): > 100 µM (inactive)
GI50 (HL-60): > 100 µM (inactive)
GI50 (HT-29): > 100 µM (inactive)
GI50 (SK-OV-3): > 100 µM (inactive)
GI50 (UACC-257): > 100 µM (inactive)
GI50 (Hs-578T): > 100 µM (inactive)
GI50 (CAKI-1): > 100 µM (inactive)
GI50 (HCT-116): > 100 µM (inactive)
GI50 (Malme-3M): > 100 µM (inactive)
GI50 (SNB-75): > 100 µM (inactive)
GI50 (DU-145): > 100 µM (inactive)
GI50 (TK-10): > 100 µM (inactive)
GI50 (UO-31): > 100 µM (inactive)
GI50 (M14): > 100 µM (inactive)

CCOC(=O)c1nnn(CCCCO)c1C(=O)OCC
GI50 (MDA-MB-231): > 100 µM (inactive)
GI50 (SK-MEL-5): > 100 µM (inactive)
GI50 (NCI-H226): > 100 µM (inactive)
GI50 (OVCAR-4): > 100 µM (inactive)
GI50 (RXF 393): > 100 µM (inactive)
GI50 (UACC-62): > 100 µM (inactive)
GI50 (HCC 2998): > 100 µM (inactive)
GI50 (SN12C): > 100 µM (inactive)
GI50 (NCI-H23): > 100 µM (inactive)
GI50 (KM12): > 100 µM (inactive)
GI50 (HCT-15): > 100 µM
GI50 (PC-3): > 100 µM (inactive)
GI50 (SW-620): > 100 µM (inactive)
GI50 (A549): > 100 µM (inactive)
GI50 (SF-295): > 100 µM (inactive)
GI50 (CCRF-CEM): > 100 µM (inactive)
GI50 (T47D): > 100 µM (inactive)
GI50 (SR): > 100 µM (inactive)
GI50 (SNB-19): 30.1 µM (inactive)
GI50 (786-0): > 100 µM (inactive)
GI50 (EKVX): > 100 µM (inactive)
GI50 (MDA-MB-435): > 100 µM (inactive)
GI50 (MOLT-4): > 100 µM (inactive)
GI50 (ACHN): > 10 µM (inactive)
GI50 (MCF7): > 100 µM (inactive)
GI50 (HOP-62): > 100 µM (inactive)
GI50 (SK-MEL-28): > 100 µM (inactive)
GI50 (NCI/ADR-RES): > 100 µM (inactive)
GI50 (LOX IMVI): > 100 µM (inactive)
GI50 (NCI-H460): > 100 µM (inactive)
GI50 (HOP-92): > 100 µM (inactive)
GI50 (U-251): > 100 µM (inactive)
GI50 (MDA-N): > 100 µM (inactive)
GI50 (SK-MEL-2): > 100 µM (inactive)
GI50 (IGROV-1): > 100 µM (inactive)
GI50 (SF-268): > 100 µM (inactive)
GI50 (BT-549): > 100 µM (inactive)
GI50 (COLO 205): > 100 µM (inactive)
GI50 (OVCAR-8): > 100 µM (inactive)
GI50 (HT-29): > 100 µM (inactive)
GI50 (SF-539): > 100 µM (inactive)
GI50 (UACC-257): > 100 µM (inactive)
GI50 (Hs-578T): > 100 µM (inactive)
GI50 (CAKI-1): > 100 µM (inactive)
GI50 (HCT-116): > 100 µM (inactive)
GI50 (Malme-3M): > 100 µM (inactive)
GI50 (SNB-75): > 100 µM (inactive)
GI50 (DU-145): > 100 µM (inactive)
GI50 (TK-10): > 100 µM (inactive)
GI50 (UO-31): > 100 µM (inactive)
